Measurements as given in BindingDB's records for patent US11970463 (Astrazeneca, 2024).
pIC50: −log10 of the molar value.

Target: Potassium voltage-gated channel subfamily H member 2 (Homo sapiens, UniProt Q12809)
Test: hERG Assay
Protocol: Experiments were performed on the SyncroPatch 384PE (Nanion Technologies) high throughput patch clamp platform at rt and used medium resistance chips with 4 patch holes per site. hERG-expressing Chinese hamster ovary K1 (CHO) cell line were used in assay-ready format and kept in liquid nitrogen until use. 2 vials of cells (10×10^6 cells per vial) were thawed and added to 20 mL Hepes-buffered saline solution (HBSS). HBSS comprised 140 mM NaCl, 4 mM KCl, 10 mM HEPES and 5 mM Glucose (pH 7.4). The internal patch clamp solution was KF 120 mM, KCl 20 mM, HEPES 10 mM, EGTA 10 mM, and 25 μM Escin (pH7.2). After the initial sealing process was complete, a seal enhancer solution comprising HBSS supplemented with 10 mM CaCl2 and 1 mM MgCl2 was applied to cells. The external solution was then exchanged (4 times) for external patch clamp solution comprising NaCl 80 mM, KCl 4 mM, HEPES 10 mM, CaCl2 2 mM, MgCl2 1 mM, glucose 5 mM, and NMDG 60 mM (pH 7.4). All solutions were stored at rt, except Escin, which was stored at 4° C. All compounds were dispensed in greiner-bio 384 well plates and tested in a 6 point cumulative assay (final DMSO concentration 0.33%). Only wells that passed acceptance criteria (30 MegaOhm seal resistance, Z prime >0.4 and current size >0.2 nA) were used in this analysis.

Potassium voltage-gated channel subfamily H member 2, sequence (Q12809 whole entry): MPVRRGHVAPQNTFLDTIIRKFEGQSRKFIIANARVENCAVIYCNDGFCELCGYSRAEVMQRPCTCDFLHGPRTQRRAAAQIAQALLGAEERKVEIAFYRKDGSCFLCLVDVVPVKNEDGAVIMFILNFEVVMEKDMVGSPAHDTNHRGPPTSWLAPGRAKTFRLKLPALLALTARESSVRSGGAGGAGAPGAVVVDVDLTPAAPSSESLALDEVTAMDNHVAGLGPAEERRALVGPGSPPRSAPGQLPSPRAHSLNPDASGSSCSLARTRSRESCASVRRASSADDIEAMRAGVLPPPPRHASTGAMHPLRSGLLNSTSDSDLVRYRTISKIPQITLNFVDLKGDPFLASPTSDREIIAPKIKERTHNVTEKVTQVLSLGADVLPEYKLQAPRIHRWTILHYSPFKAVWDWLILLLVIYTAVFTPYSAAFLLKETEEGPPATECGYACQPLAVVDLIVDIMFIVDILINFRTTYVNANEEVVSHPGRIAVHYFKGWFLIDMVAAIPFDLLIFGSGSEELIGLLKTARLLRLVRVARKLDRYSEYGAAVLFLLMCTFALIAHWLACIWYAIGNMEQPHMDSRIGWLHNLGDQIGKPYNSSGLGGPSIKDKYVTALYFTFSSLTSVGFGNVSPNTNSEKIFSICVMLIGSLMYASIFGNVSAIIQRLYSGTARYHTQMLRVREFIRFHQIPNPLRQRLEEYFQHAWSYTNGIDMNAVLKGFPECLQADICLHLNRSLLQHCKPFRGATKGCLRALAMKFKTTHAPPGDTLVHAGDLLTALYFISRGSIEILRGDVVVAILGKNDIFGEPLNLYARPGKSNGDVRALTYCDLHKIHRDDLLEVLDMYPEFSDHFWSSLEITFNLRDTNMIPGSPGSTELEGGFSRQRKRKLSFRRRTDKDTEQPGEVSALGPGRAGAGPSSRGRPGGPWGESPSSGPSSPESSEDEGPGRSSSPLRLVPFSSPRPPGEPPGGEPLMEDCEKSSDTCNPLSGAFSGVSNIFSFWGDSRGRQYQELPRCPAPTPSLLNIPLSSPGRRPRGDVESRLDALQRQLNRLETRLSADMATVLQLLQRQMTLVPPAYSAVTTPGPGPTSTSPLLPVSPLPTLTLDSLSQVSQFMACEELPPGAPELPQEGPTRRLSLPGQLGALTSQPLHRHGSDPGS

C[C@@]1(O)CC[C@@H](Nc2nnc(-c3ccc(C(F)(F)F)cc3O)c3ccncc23)C1 [US11970463, Example 38]
pIC50: 4.47
